These results are taken from patent US20250223404A1, “SHAPED ARTICLE COMPRISING A POLY(ARYL ETHER SULFONE) (PAES) POLYMER AND METHOD OF MAKING USING MELT PROCESSING” (Solvay Specialty Polymers USA, LLC, priority 2022, published 2025).

pEC50: −log10 of the molar value. Read-outs that look alike come from different tables or passages of the source.

For this assay, the target named is T1, human Estrogen receptor alpha (ERα) (Homo sapiens, UniProt P03372).
T1 construct: expressed in transfected cells; host or cells: GeneBLAzer ER-α-UAS-bla GripTite 293 cells (stably integrated)
T1 sequence (P03372 311-547 limits assumed): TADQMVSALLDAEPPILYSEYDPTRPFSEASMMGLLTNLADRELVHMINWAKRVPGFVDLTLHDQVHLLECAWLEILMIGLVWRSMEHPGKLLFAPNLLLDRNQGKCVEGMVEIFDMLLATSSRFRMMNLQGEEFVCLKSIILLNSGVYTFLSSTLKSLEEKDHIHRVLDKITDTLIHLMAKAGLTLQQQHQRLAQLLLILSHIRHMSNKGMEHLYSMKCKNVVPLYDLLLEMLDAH
Briefly: GeneBLAzer Cell-Based Nuclear Receptor Assay (beta-lactamase reporter), ER-α-UAS-bla GripTite 293 cells. The settings on record: for pEC50: estrogen agonist activity on ERα cells, read-out: EC50 value; for EC50: estrogen agonist activity, ER-α-UAS-bla GripTite 293 cells, monomers in DMSO, 7 to 250000 nM, read-out: EC50 (nM) response value to the estrogen receptor alpha; for estrogenic activity on ERα cells compared with BPA, BPS and BP: in words. How it is done: The response value “EC50” was measured by using the GeneBLAzer® Cell-Based Nuclear Receptor Assay technology which uses the GeneBLAzer®.
The monomers (see Table 7) were dissolved in 100% biological-grade DMSO at a concentration of 7 to 250000 nM (nanomolar). The ER-α-UAS-bla GripTite™ 293 cells were used to measure EC50. The higher the EC50 value is, the weaker the estrogenic agonist activity is for the monomer tested.
The GeneBLAzer® ER-α-UAS-bla GripTite™ cells contain a ligand-binding domain (LBD) of the human Estrogen receptor alpha (ERα) fused to a DNA-binding domain of GAL4 plasmid stably integrated in the GeneBLAzer® UAS-bla GripTite™ cell line. The GeneBLAzer® UAS-bla GripTite™ cells stably express a beta-lactamase reporter gene under the transcriptional control of an upstream activator sequence (UAS). When an estrogenic agonist binds to the LBD of the GAL4 (DBD)-ER α (LBD) fusion protein, the protein binds to the UAS, resulting in expression of beta-lactamase.

In general, pEC50 refers to the negative decadic logarithm of the EC50, by convention in mol/L. For orientation: EC50 means the concentration at which the effect is half-maximal. As for `Oc1cc2ccccc2cc1O` [2,3-NDO, 2,3 Napthalene diol], the pEC50 is at most 4.52; the 50% effective concentration (EC50) was over 79100 nM; the “estrogenic activity on ERα cells compared with BPA, BPS and BP” value is given as “much lower estrogenic activity”.

Regarding `Oc1cccc2c(O)cccc12` [1,5-NDO, 1,5 Naphthalene diol], the pEC50 is at most 4.52; the concentration giving a half-maximal response (EC50) is over 79100 nM; the “estrogenic activity on ERα cells compared with BPA, BPS and BP” value is listed as “much lower estrogenic activity”.

`O=S(=O)(c1ccc(O)cc1)c1ccc(O)cc1` [BPS, 4,4′-dihydroxydiphenyl sulfone, reference compound]: the EC50 was 791 nM.

With `Oc1ccc2ccc(O)cc2c1` [2,7-NDO, 2,7 Napthalene diol], the 50% effective concentration (EC50) is 32000 nM; the “estrogenic activity on ERα cells compared with BPA, BPS and BP” value is reported as “much lower estrogenic activity”.
